Where two headings read alike, the source gives them in different places.
What was measured:
[1] = test system: BAF-3/TPO-responsive human cell lines; experiment: proliferation of BAF-3/TPO-responsive human cell lines (Table 1); type: cell-based
[2] = target: T1, TPO receptor (Homo sapiens, UniProt P40238); experiment: Luciferase assay in TPO-responsive BaF3 cell line; type: cell-based, murine; settings: at a concentration of 3 uM
T1 construct: expressed in transfected cells; host or cells: murine BaF3 cells (TPO-responsive line)
T1 sequence (P40238 26-635): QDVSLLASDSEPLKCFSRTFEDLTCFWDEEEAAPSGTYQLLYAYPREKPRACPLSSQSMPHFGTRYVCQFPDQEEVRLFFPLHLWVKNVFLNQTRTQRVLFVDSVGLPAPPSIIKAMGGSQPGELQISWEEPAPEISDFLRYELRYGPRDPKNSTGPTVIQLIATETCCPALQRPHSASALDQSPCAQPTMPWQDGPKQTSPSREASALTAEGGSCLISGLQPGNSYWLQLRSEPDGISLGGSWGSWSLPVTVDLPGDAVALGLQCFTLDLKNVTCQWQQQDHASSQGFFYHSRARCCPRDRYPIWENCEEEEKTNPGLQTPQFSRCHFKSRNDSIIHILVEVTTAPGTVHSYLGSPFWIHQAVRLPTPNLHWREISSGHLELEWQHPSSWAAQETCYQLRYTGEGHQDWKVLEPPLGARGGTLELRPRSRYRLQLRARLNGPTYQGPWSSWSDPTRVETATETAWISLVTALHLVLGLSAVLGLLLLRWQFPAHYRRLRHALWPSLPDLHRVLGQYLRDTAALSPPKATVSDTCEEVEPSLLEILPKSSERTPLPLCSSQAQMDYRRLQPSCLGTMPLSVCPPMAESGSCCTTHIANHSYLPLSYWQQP
Experimental: Compounds of the present invention were tested for potency as mimetics of the TPO receptor in a Luciferase assay such as described in Lamb, et al., Nucleic Acids Research 23: 3283–3289 (1995) and Seidel, et al., Proc. Natl. Acad. Sci., USA 92: 3041–3045 (1995) by substituting a TPO-responsive BaF3 cell line (Vigon et al. Proc. Natl. Acad. Sci. USA 1992, 89, 5640–5644) for the HepG2 cells utilized therein. The murine BaF3 cells express TPO receptors and closely match the pattern of STAT (signal transducers and activators of transcription) activation observed in primary murine and human bone marrow cells in response to TPO.

SMILES | Efficacy/%TPOmax [1] [%TPOmax] | EC50 ([1]; BaF3) [nM] | EC50 [1] [nM] | activation, % of control (control is the maximal response to TPO) [2]
Cc1ccc(-n2nc(C)c(C=NNC(=S)Nc3ccc(C(=O)O)cc3)c2O)cc1 [Example 15.29, 4-(4-carboxyphenyl)-1-[{5-hydroxy-3-methyl-1-(4-methylphenyl)pyrazol-4-yl}methylene]-3-thiosemicarbazide] | 100 | 30 | – | –
O=C(O)c1cccc(NC(=S)NN=Cc2cccc(-c3ccc(Cl)cc3)c2O)c1 [Example 15.12, 4-(3-carboxyphenyl)-1-[3-(4-chlorophenyl)-2-hydroxybenzylidene]-3-thiosemicarbazide] | 85 | 60 | – | –
Cc1ccc(-n2nc(C)c(C=NNC(=S)Nc3cccc(C(=O)O)c3)c2O)cc1 [Example 15.30, 4-(3-carboxyphenyl)-1-[{5-hydroxy-3-methyl-1-(4-methylphenyl)pyrazol-4-yl}methylene]-3-thiosemicarbazide] | 100 | 30 | – | –
O=C(O)c1cccc(NC(=S)NN=Cc2cccc(-c3cccc(C(F)(F)F)c3)c2O)c1 [Example 15.10, 4-(3-carboxyphenyl)-1-[2-hydroxy-3-(3-trifluoromethylphenyl)benzylidene]-3-3-thiosemicarbazide] | 100 | – | 50 | –
Cc1nn(-c2cccc(Cl)c2)c(O)c1C=NNC(=S)Nc1ccc(C(=O)O)cc1 [Example 15.31, 4-(4-carboxyphenyl)-1-[{1-(3-chlorophenyl)-5-hydroxy-3-methylpyrazol-4-yl}methylene]-3-thiosemicarbazide] | 100 | 30 | – | –
Cc1ccc(-c2cccc(C=NNC(=S)Nc3cccc(C(=O)O)c3)c2O)cc1C [Example 15.8, 4-(3-carboxyphenyl)-1-[3-(3,4-dimethylphenyl)-2-hydroxybenzylidene]-3-thiosemicarbazide] | 90 | 30 | – | about 20 % of control
O=C(O)c1ccc(NC(=S)NN=Cc2cccc(-c3cccc(C(F)(F)F)c3)c2O)cc1 [Example 15.9, 4-(4-carboxyphenyl)-1-[2-hydroxy-3-(3-trifluoromethylphenyl)benzylidene]-3-thiosemicarbazide] | 100 | 20 | – | –

— US7241783B2, “Thrombopoietin mimetics” (SmithKline Beecham Corporation, priority 2000, dated 2007)
